“Also recorded” adds a separate entry of the source. Where two headings read alike, the source gives them in different places.
Columns and labels:
dengue virus [1] = assay: Initial screening of hit compounds for anti-dengue activity in tissue culture cells (Table S1); type: cell-based; settings: viral titer relative to vehicle, tissue culture cell lines (BHK-21 48 hpi, Fig. S1; Huh7, Fig. 2C, 3C, 4C)
Protocol: For each query molecule, the top 500 compound hits obtained from the ROCS algorithm, as ranked by the Tanimoto combo score (see Data Set S1 in the supplemental material), were manually inspected for similar chemical and structural features. They were further prioritized by factors such as a lack of known side effects, commercial availability, and the intellectual property considerations that would be needed for worldwide, inexpensive use. Fourteen candidates were tested for their effects on dengue virus growth and toxicity in BHK-21 and Huh7 cells (see Table S1 and Fig. S1 in the supplemental material).
Supplementary file : TABLE S1 Summary of hits for lead compounds ARDP0006 and ST-148 screened for anti-dengue activity in tissue culture cells. Hit compounds were tested for anti-dengue activity and cell toxicity in tissue culture cell lines. Antiviral activity is summarized as follows: −, not antiviral, with titer greater than 50% of vehicle; +, weakly antiviral, with titer between 20 and 50% of vehicle; ++, moderately antiviral, with titer between 5 and 20% of vehicle; +++, highly antiviral, with titer less than 5% of vehicle. Toxicity at these doses is represented as follows: −, nontoxic, with cell viability greater than 80% of vehicle; +, mild toxicity, with cell viability between 60 and 80% of vehicle; +++, high toxicity, with cell viability less than 60% of vehicle. Data summarized here are depicted graphically in Fig. S1 and Fig. 2C, 3C, and [4]C. The Tanimoto combo score of each hit during initial ROCS screening is indicated; higher Tanimoto combo scores are indicative of increased chemical similarity. Download Table S1, PDF file, 0.04 MB.
Supplementary file : FIG S1 Initial screening of eliminated hit compounds for anti-dengue activity in tissue culture cells. BHK-21 cells were pretreated with the compounds at the indicated concentrations for 30 min, infected with dengue virus at an MOI of 0.1 PFU/cell for 1 h, and then posttreated with compound. At 48 hpi, cellular supernatant was collected and titered by plaque assay (purple). Cell viability in uninfected cells in the presence of compounds for 48 h was measured by WST assay (gray). Both viral titer and cell viability are normalized to their relative DMSO vehicle control, N = 2. Download FIG S1, PDF file, 0.06 MB.

dengue viral RNA = assay: Intracellular viral RNA quantification by qRT-PCR in infected Huh7 cells; type: cell-based, dengue virus; settings: added 4 h postinfection at IC90 dose (5.6 μM ST-148, 0.66 μM niclosamide)
Protocol: (§1) (A) Chemical structures and (B) ROCS overlay of ST-148 and niclosamide. […] Compound addition, viral growth, and cytotoxicity assays were performed as described in the legend to Fig. 2C. (D) Virucidal activity of compounds at the concentrations indicated was measured after 60-min incubation of drugs with virus-containing solutions at 37°C. Viral titer was quantified by plaque assay on BHK-21 cells. n = 3. Statistical significance was evaluated by one-way ANOVA with Sidak’s multiple-comparison test and indicated as follows: *, P < 0.05; **, P < 0.01; ****, P < 0.0001; ns, not significant. […] On the left, cells were pretreated for 2 h prior to infection, compounds were removed during a 1-h infection at an MOI of 0.5 PFU/cell and then readministered after removal of viral inoculum. On the right, cells were similarly infected and compounds were first introduced 4 h after starting the infection. […] (F) To test the effect of ST-148 and niclosamide on viral RNA replication, Huh7 cells were infected for 1 h at an MOI of 0.5 PFU/cell. […] Intracellular RNA was collected at the time points indicated and quantified by qRT-PCR. […] N = 4, two-way ANOVA with Dunnett’s multiple-comparison test. […] After 4 h of infection, 10 μM ST-148 or 1 μM niclosamide was added; extracellular virus was collected at 24 hpi and quantified by plaque assay.

[2] = single dose, ref PubChem database, cited from earlier work
dengue virus [3] = assay: Virucidal activity assay, 60-min incubation of drug with virus, plaque assay on BHK-21 cells; type: cell-based
Protocol: as §1
Compounds were diluted to 100× in DMSO, then further diluted 1:100 into phosphate-buffered saline (PBS) containing dengue virus to a final volume of 200 μl and mixed. Aliquots were taken for plaque assays immediately after addition of compounds (time [T] = 0 min) or after incubation at 37°C for 60 min (T = 60 min).

DENV2 = assay: Antiviral activity in DENV2-infected Huh7 cells, infectious virus in supernatant by plaque assay; type: cell-based, dengue virus
Protocol: FIG 2 Pyrimethamine inhibits dengue virus and NS2B/3 proteinase cleavage like ARDP0006. (A) Chemical structures and (B) ROCS overlay of ARDP0006 and pyrimethamine. […] Infectious virus in cell supernatant was quantified by plaque assay at 24 hpi (left y axis, black or red). Cell viability was measured at the same pyrimethamine doses 24 h posttreatment by WST-1 assay (right y axis, gray). Viral titer and cell viability were normalized to DMSO-treated samples. (D) Splenic titers of DENV2-infected AGB6 mice at 4 days postinfection. Mice were infected with 1 × 10^6 PFU DENV2 and treated twice daily with 20 mg/kg pyrimethamine (n = 9) or a vehicle control (n = 10). Data were analyzed by two-tailed unpaired t test. (E) Cleavage kinetics of NS2B/3/4A in the presence of 100 μM pyrimethamine. NS2B/3/4A protein was expressed in vitro and radiolabeled with [^35S]methionine, followed by treatment with 100 μM pyrimethamine or DMSO. Reaction samples were obtained over a 45-min time course, separated by SDS-PAGE, and the fraction of uncleaved proteinase precursor remaining was determined as described previously ([23]). Data from three replicates were fit using single-phase exponential decay functions, and P value was determined by comparing the rate constant, K, of the models using the extra sum-of-squares F test.
Dengue plaque assays were carried out on BHK-21 cells in 24-well plates. Cells were infected with 10-fold serial dilutions of virus, which were allowed to adsorb for at least 1 h at 37°C, and overlaid with standard cell culture medium plus 0.37% (w/vol) sodium bicarbonate and 0.8% (w/vol) Aquacide II (Millipore Calbiochem). After 7 days of incubation at 37°C, 5% CO2, cells were fixed with 5% (final) formaldehyde and stained with crystal violet for plaque enumeration.
Between 4 × 10^4 and 1 × 10^5 Huh7 cells per well were seeded into 24-well plates 1 day prior to infection. Compounds were diluted to 100× final concentration in DMSO and then further diluted 1:100 into appropriate cell culture. Unless otherwise indicated, tested compounds were present for 1 h pretreatment and readministered for posttreatment following infection. […] Media and drugs were removed from cells for infection at a multiplicity of infection (MOI) of 0.1 or 0.5 in 200 μl cold medium per well. After 1 h at 37°C, virus inoculum was removed by aspiration and replaced with medium plus compound or control. After 24-h total infection, infectious virus was quantified by plaque assay. Antiviral IC50 dose-response curves were fitted in GraphPad Prism 8 using the “[inhibitor] versus response, variable slope” function with a constraint “bottom > 0.” IC90 values are defined as the dose at which “y = (span × 0.1) + bottom.”

Zika virus = system: Zika virus; design: method as in PMID 27571349; settings: read-out: IC50, previously reported value for Zika virus; cited from earlier work

## O=C(Nc1ccc([N+](=O)[O-])cc1Cl)c1cc(Cl)ccc1O [Niclosamide, niclosamide]
Dengue virus [1]
  Antiviral: +++ (highly antiviral, with titer less than 5% of vehicle)
Dengue viral RNA
  Viral RNA abundance: no difference in viral RNA abundance
[2]; IP
  LD50: 7.5 mg/kg
[2]; Oral
  LD50: 1000 mg/kg
Dengue virus [3]; 1 μM niclosamide added to 0.1 μM ST-148, 1 h at 37°C
  Virucidal effect of the combination with ST-148: significantly increased the virucidal effect of ST-148; also recorded: augment the virucidal activity of ST-148
Dengue virus [3]; niclosamide alone at a much higher concentration, 1 h at 37°C
  Virucidal activity (viral infectivity after coincubation): significantly, albeit slightly, virucidal
DENV2; 10 μM ST-148 or 1 μM niclosamide added after 4 h of infection, extracellular virus at 24 hpi
  Virion production at increased dose after entry: effective during later, postentry stages; also recorded: inhibited virion production
DENV2; Dengue virus, Huh-7, DENV2-infected Huh7 cells, from dose-response curve fit, 24 hpi
  IC90: 660 nM
DENV2; Dengue virus, Huh-7, DENV2-infected Huh7 cells, single infectious cycle, plaque assay at 24 hpi, read-out: IC50 of viral inhibition (infectious extracellular virus)
  IC50: 280 nM
DENV2; IC90 dose first added 4 h after infection, Huh7, 24 hpi
  Viral titer on delayed addition of compound: eliminated the observed reduction of viral titer
Zika virus
  IC50: 280 nM

From article PMC7667029, “A Targeted Computational Screen of the SWEETLEAD Database Reveals FDA-Approved Compounds with Anti-Dengue Viral Activity” (mBio, 2020)
